Test [1] relates to primary human fibroblasts derived from IPF patients (LL29 cells). As to the kind of experiment: Inhibition of fibrosis: TGF-β1-treated primary human fibroblasts from IPF patients (LL29), αSMA staining. Type of test: cell-based. The conditions noted are these: Fibroblast, 96 h, TGF-β1 20 ng/mL, 4 days, % αSMA-positive cells. The gist of the method:
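[…] (0.1% DMSO) on LL29 cells in F12 with 1% FBS, with TGF-β1 (20 ng/mL) added 1 h after plating; 4 days at 37 °C. SYTOX-positive dead cells were excluded and the % αSMA-positive cells was imaged, normalized to TGF-β1/DMSO wells, triplicates; EC50 by non-linear regression.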

The subject of test [2] is Wnt activity (Sp5-Luc reporter, SW480 colon carcinoma cells). Kind of test: Screening assay for Wnt activity: Sp5-Luc reporter gene assay in SW480 cells. The test is classed as cell-based. The conditions noted are these: Homo sapiens, 42 h incubation, luminescence. In outline: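 IC50 values come from variable-slope four-parameter fits of luciferase signal normalized to DMSO wells. Stable Sp5-Luc reporter SW480 colon carcinoma cells were exposed to compounds in a 3-fold dilution series (source plates from 10 mM stock) for forty-two hours at 37 °C.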
For orientation: A reporter such as luciferase makes a cellular process visible.

We go through 26 compounds from US10081631B2, “2-(1H-indazol-3-yl)-1H-imidazo[4,5-C]pyridine and therapeutic uses thereof” (Samumed, LLC, priority 2014, dated 2018).

As usually defined, the pEC50 is the negative decadic logarithm of the EC50, by convention in mol/L. In general, pIC50 refers to the IC50 on a negative log10 scale, so that one unit is a factor of ten. Higher therefore signals a small IC50.

SMILES strings stand for the structures. pEC50, pIC50: −log10 of the molar value.

`CN1CCN(c2nccc3[nH]c(-c4n[nH]c5ccc(-c6cncc(NC(=O)CC(C)(C)C)c6)cc45)nc23)CC1` [Compound 224, 3,3-Dimethyl-N-(5-(3-(4-(4-methylpiperazin-1-yl)-1H-imidazo[4,5-c]pyridin-2-yl)-1H-indazol-5-yl)pyridin-3-yl)butanamide] had a pEC50 in test [1] of 5.96. Besides, the negative-log IC50 (pIC50) in test [2] was 6.17.

Take `c1cncc(-c2nccc3[nH]c(-c4n[nH]c5ccc(-c6cncc(CN7CCCCC7)c6)cc45)nc23)c1` [Compound 93, 2-(5-(5-(Piperidin-1-ylmethyl)pyridin-3-yl)-1H-indazol-3-yl)-4-(pyridin-3-yl)-1H-imidazo[4,5-c]pyridine]: the negative-log EC50 (pEC50) in test [1] was 6.41. The compound further gave a pIC50 in test [2] of 6.50.

The compound `Cn1cc(-c2ccc3[nH]nc(-c4nc5c(-c6cccc(F)c6)nccc5[nH]4)c3c2)cn1` [Compound 1772, 4-(3-Fluorophenyl)-2-(5-(1-methyl-1H-pyrazol-4-yl)-1H-indazol-3-yl)-1H-imidazo[4,5-c]pyridine] had a pEC50 in test [1] of 5.00. Further, the pIC50 in test [2] was 7.96.

Consider `CCC(=O)Nc1cncc(-c2ccc3[nH]nc(-c4nc5c(N6CCCCC6)nccc5[nH]4)c3c2)c1` [Compound 157, N-(5-(3-(4-(Piperidin-1-yl)-1H-imidazo[4,5-c]pyridin-2-yl)-1H-indazol-5-yl)pyridin-3-yl)propionamide], for which the pEC50 in test [1] is 7.15. The pIC50 in test [2] was 6.74.

In test [1], `CC(=O)c1ccc(-c2nccc3[nH]c(-c4n[nH]c5ccc(-c6cncc(NC(=O)Cc7ccccc7)c6)cc45)nc23)s1` [Compound 374, N-(5-(3-(4-(5-Acetylthiophen-2-yl)-1H-imidazo[4,5-c]pyridin-2-yl)-1H-indazol-5-yl)pyridin-3-yl)-2-phenylacetamide] gave a pEC50 of 8.05. In test [2], this compound had a pIC50 of 8.05.

In test [1], `Cc1cn(-c2nccc3[nH]c(-c4n[nH]c5ccc(-c6cncc(NC(=O)C7CCC7)c6)cc45)nc23)cn1` [Compound 202, N-(5-(3-(4-(4-Methyl-1H-imidazol-1-yl)-1H-imidazo[4,5-c]pyridin-2-yl)-1H-indazol-5-yl)pyridin-3-yl)cyclobutanecarboxamide] gave a pEC50 of 7.89. In test [2], the pIC50 was greater than 9.00.

On to `Fc1cccc(-c2nccc3[nH]c(-c4n[nH]c5ccc(C6CCNCC6)cc45)nc23)c1` [Compound 1769, 4-(3-Fluorophenyl)-2-(5-(piperidin-4-yl)-1H-indazol-3-yl)-1H-imidazo[4,5-c]pyridine], for which, in test [1], the pEC50 was 6.17. In addition, the pIC50 in test [2] is 5.63.

In turn, `CC(C)(C)C(=O)Nc1cncc(-c2ccc3[nH]nc(-c4nc5c(-c6cccnc6)nccc5[nH]4)c3c2)c1` [Compound 86, N-(5-(3-(4-(Pyridin-3-yl)-1H-imidazo[4,5-c]pyridin-2-yl)-1H-indazol-5-yl)pyridin-3-yl)pivalamide] gave a pEC50 in test [1] of 6.00. The pIC50 in test [2] is 7.75.

`Cc1ccc(-c2nccc3[nH]c(-c4n[nH]c5ccc(-c6cncc(N)c6)cc45)nc23)s1` [Compound 341, 5-(3-(4-(5-Methylthiophen-2-yl)-1H-imidazo[4,5-c]pyridin-2-yl)-1H-indazol-5-yl)pyridin-3-amine] gave a pEC50 in test [1] of 8.05. The pIC50 in test [2] is 8.89.

In test [1], `O=C(Nc1cncc(-c2ccc3[nH]nc(-c4nc5c(-c6ccccc6F)nccc5[nH]4)c3c2)c1)C1CCCC1` [Compound 73, N-(5-(3-(4-(2-Fluorophenyl)-1H-imidazo[4,5-c]pyridin-2-yl)-1H-indazol-5-yl)pyridin-3-yl)cyclopentanecarboxamide] had a pEC50 of 8.05. Besides, the pIC50 in test [2] was 8.10.

As for `CC(C)Nc1cncc(-c2ccc3[nH]nc(-c4nc5c(-c6cc(F)cc(NCCN(C)C)c6)nccc5[nH]4)c3c2)c1` [Compound 428, N^1-(3-Fluoro-5-(2-(5-(5-(isopropylamino)pyridin-3-yl)-1H-indazol-3-yl)-1H-imidazo[4,5-c]pyridin-4-yl)phenyl)-N^2,N^2-dimethylethane-1,2-diamine], in test [1], the pEC50 is 8.05. In addition, the negative-log IC50 (pIC50) in test [2] was 8.22.

On to `c1ccc(-c2nccc3[nH]c(-c4n[nH]c5ccc(-c6cncc(CNCC7CCCC7)c6)cc45)nc23)nc1` [Compound 154, 1-Cyclopentyl-N-((5-(3-(4-(pyridin-2-yl)-1H-imidazo[4,5-c]pyridin-2-yl)-1H-indazol-5-yl)pyridin-3-yl)methyl)methanamine], for which, in test [1], the pEC50 is 7.21. For the same compound, in test [2], the pIC50 was 7.21.

In the case of `CCC(=O)Nc1cncc(-c2ccc3[nH]nc(-c4nc5c(-c6cccc(F)c6)nccc5[nH]4)c3c2)c1` [Compound 1, N-(5-(3-(4-(3-Fluorophenyl)-1H-imidazo[4,5-c]pyridin-2-yl)-1H-indazol-5-yl)pyridin-3-yl)propionamide], the pEC50 in test [1] was 7.70. Moreover, the pIC50 in test [2] is 9.00.

`O=C(Nc1cncc(-c2ccc3[nH]nc(-c4nc5c(-c6ccoc6)nccc5[nH]4)c3c2)c1)C1CCC1` [Compound 280, N-(5-(3-(4-(Furan-3-yl)-1H-imidazo[4,5-c]pyridin-2-yl)-1H-indazol-5-yl)pyridin-3-yl)cyclobutanecarboxamide] had a pEC50 in test [1] of 5.91. Moreover, in test [2], the pIC50 is 7.55.

Regarding `O=C(Nc1cncc(-c2ccc3[nH]nc(-c4nc5c(-c6ccncc6)nccc5[nH]4)c3c2)c1)C1CCCCC1` [Compound 126, N-(5-(3-(4-(Pyridin-4-yl)-1H-imidazo[4,5-c]pyridin-2-yl)-1H-indazol-5-yl)pyridin-3-yl)cyclohexanecarboxamide], the pEC50 in test [1] is 5.00. In test [2], this compound gave a pIC50 of 5.93.

Take `CN(C)CCOc1cncc(-c2ccc3[nH]nc(-c4nc5c(-c6cccc(F)c6)nccc5[nH]4)c3c2)c1` [Compound 1779, 2-((5-(3-(4-(3-Fluorophenyl)-1H-imidazo[4,5-c]pyridin-2-yl)-1H-indazol-5-yl)pyridin-3-yl)oxy)-N,N-dimethylethan-1-amine]: the pEC50 in test [1] is 7.39. In test [2], the pIC50 is 6.72.

Consider `O=C(Nc1cncc(-c2ccc3[nH]nc(-c4nc5c(-c6cccs6)nccc5[nH]4)c3c2)c1)C1CCCC1` [Compound 307, N-(5-(3-(4-(Thiophen-2-yl)-1H-imidazo[4,5-c]pyridin-2-yl)-1H-indazol-5-yl)pyridin-3-yl)cyclopentanecarboxamide], for which, in test [1], the pEC50 was 6.37. In test [2], this compound had a negative logarithm of the IC50 (pIC50) of 7.46.

As to `Nc1cncc(-c2ccc3[nH]nc(-c4nc5c(-c6ccccc6F)nccc5[nH]4)c3c2)c1` [Compound 55, 5-(3-(4-(2-Fluorophenyl)-1H-imidazo[4,5-c]pyridin-2-yl)-1H-indazol-5-yl)pyridin-3-amine], in test [1], the pEC50 is 7.77. The compound also had a pIC50 in test [2] of 8.39.

`CC(C)Nc1cncc(-c2ccc3[nH]nc(-c4nc5c(-c6ccc(F)cc6)nccc5[nH]4)c3c2)c1` [Compound 38, 5-(3-(4-(4-Fluorophenyl)-1H-imidazo[4,5-c]pyridin-2-yl)-1H-indazol-5-yl)-N-isopropylpyridin-3-amine] had a pEC50 in test [1] of 6.90. This compound also showed a pIC50 in test [2] of 7.37.

Compound `O=C(Nc1cncc(-c2ccc3[nH]nc(-c4nc5c(-c6ccsc6)nccc5[nH]4)c3c2)c1)C1CCCC1` [Compound 255, N-(5-(3-(4-(Thiophen-3-yl)-1H-imidazo[4,5-c]pyridin-2-yl)-1H-indazol-5-yl)pyridin-3-yl)cyclopentanecarboxamide] gave a pEC50 in test [1] of 5.91. The pIC50 in test [2] was 7.23.

In the case of `Fc1cccc(-c2nccc3[nH]c(-c4n[nH]c5ccc(-c6cncc(OC7CCNCC7)c6)cc45)nc23)c1` [Compound 1776, 4-(3-Fluorophenyl)-2-(5-(5-(piperidin-4-yloxy)pyridin-3-yl)-1H-indazol-3-yl)-1H-imidazo[4,5-c]pyridine], in test [1], the negative-log EC50 (pEC50) was 7.42. The pIC50 in test [2] is 6.11.

In the case of `FC1(F)CCN(Cc2cncc(-c3ccc4[nH]nc(-c5nc6c(N7CCCCC7)nccc6[nH]5)c4c3)c2)C1` [Compound 181, 2-(5-(5-((3,3-Difluoropyrrolidin-1-yl)methyl)pyridin-3-yl)-1H-indazol-3-yl)-4-(piperidin-1-yl)-1H-imidazo[4,5-c]pyridine], in test [1], the pEC50 is 7.09. Further, the negative logarithm of the IC50 (pIC50) in test [2] was 7.17.

Compound `CN(C)c1cncc(-c2ccc3[nH]nc(-c4nc5c(-c6ccccc6F)nccc5[nH]4)c3c2)c1` [Compound 59, 5-(3-(4-(2-Fluorophenyl)-1H-imidazo[4,5-c]pyridin-2-yl)-1H-indazol-5-yl)-N,N-dimethylpyridin-3-amine] gave a pEC50 in test [1] of 7.74. The pIC50 in test [2] is 8.03.

In turn, `Fc1ccc(-c2nccc3[nH]c(-c4n[nH]c5ccc(-c6cncc(CN7CCCC7)c6)cc45)nc23)cc1` [Compound 40, 4-(4-Fluorophenyl)-2-(5-(5-(pyrrolidin-1-ylmethyl)pyridin-3-yl)-1H-indazol-3-yl)-1H-imidazo[4,5-c]pyridine] gave a pEC50 in test [1] of 7.62. In test [2], this compound gave a pIC50 of 7.12.

In test [1], `CN(C)Cc1cncc(-c2ccc3[nH]nc(-c4nc5c(-c6cccc(F)c6)nccc5[nH]4)c3c2)c1` [Compound 13, 1-(5-(3-(4-(3-Fluorophenyl)-1H-imidazo[4,5-c]pyridin-2-yl)-1H-indazol-5-yl)pyridin-3-yl)-N,N-dimethylmethanamine] gave a negative-log EC50 (pEC50) of 8.05. In test [2], this compound gave a pIC50 of 9.00.

The compound `CN(C)Cc1cncc(-c2ccc3[nH]nc(-c4nc5c(N6CCCCC6)nccc5[nH]4)c3c2)c1` [Compound 169, N,N-Dimethyl-1-(5-(3-(4-(piperidin-1-yl)-1H-imidazo[4,5-c]pyridin-2-yl)-1H-indazol-5-yl)pyridin-3-yl)methanamine] showed a pEC50 in test [1] of 6.77. In test [2], this compound showed a pIC50 of 5.40.
